# Assay: Phase Ib dose escalation: safety and tolerability (CTCAE v4.03), MTD
# Format: in vivo, human
# Set-up: key to Hypercalcemia, CTCAE-Grade / Hypophosphatemia, CTCAE-Grade / Cholestasis, CTCAE-Grade / Nausea, CTCAE-Grade / Hypertension, CTCAE-Grade / Upper respiratory tract infection, CTCAE-Grade / Hyponatremia, CTCAE-Grade / Hypomagnesemia, CTCAE-Grade / Ascites & death due to rapid progression of malignancy, CTCAE-Grade / Hypokalemia, CTCAE-Grade / Pyrexia, CTCAE-Grade / Hyperphosphatemia, CTCAE-Grade / AV Block 1°, CTCAE-Grade / Palpations, CTCAE-Grade: 1 is the mildest form of the specific symptom; 5 is death
# Details: for Hypercalcemia, CTCAE-Grade: relationship to IMP: Definitively
# From the text: This first-in-patient investigator-initiated phase Ib dose-escalation study followed a 3 + 3 dose-escalation scheme with a planned maximal inclusion of 48 participants allocated to eight cohorts of increasing doses. Outcomes were safety, tolerability, pharmacokinetics, and preliminary efficacy of ITPP with participants in this exploratory, prospective, open-label and unblinded, unrandomized, single-center investigation being enrolled at the University Hospital Zurich (USZ), Switzerland. Written informed consent was obtained of all participants before study inclusion after a time of consideration of at least 24 h. Written consent included the reporting and publication of individual, anonymized patient data. The study adhered to the principles of the Declaration of Helsinki, current good clinical practice guidelines and all ethical regulations. The study protocol was approved by the responsible independent ethics committee of Zurich (KEK-ZH-Nr. 2014-0374) and the national regulatory authority Swissmedic (2015DR1009) and is provided in the Supplementary Note 1. The study setup was published before inclusion start[55] and the trial first registered at ClinicalTrials.gov (NCT02528526) on 11/11/2014. After 6 sequential reviews requiring minor editorial changes, final registration at ClinicalTrials.gov was obtained on the 08/18/2015. The first patient was included in the study 04/13/2015, with treatment started on the 04/27/2015. 4 patients were included in the trial before final registration at ClinicalTrials.gov (04/13/2015–07/20/2015). The last patient was included on the 06/12/2018, treatment started on the 06/18/2018 and the last treatment administered on 07/06/2018. Data cut-off for the study was the 12/31/2018. The manuscript was written in compliance with ICMJE guidelines.
# Primary objectives were (i) assessment of the safety and tolerability of increasing doses of ITPP, and (ii) establishment of the MTD (primary endpoint) according to the dose escalation schema. The primary outcome was measured by collection of adverse effects information according to Common Terminology Criteria for Adverse Events (CTCAE, US National Cancer Institute, version 4.03). Safety objectives and outcomes were identical with the primary endpoint.
# The study drug (brand name: OXY111A) was intravenously administered in 9 infusions, each lasting 8 h, over 3 weeks in an outpatient setting at the Phase 1 unit of the USZ Clinical Trials Center. Due to its anionic properties, ITPP acts a potent chelator of calcium. Therefore, administration with CaCl2 (Baxter) at a 1:0.75 molar ratio has been determined to prevent hypocalcaemia. Respective doses were calculated based on body surface area (DuBois/DuBois formula). Cohort 1 started at weekly doses of 5600 mg/m^2 weekly, equal to the maximal weekly dose tested in healthy volunteers (unpublished data from Normoxys®). Dose escalation was performed according to the predefined scheme (Fig. 1a, Supplementary Note 1: page 6) up to a maximum weekly dose of 43,700 mg/m^2. During infusion days, participants had continuous monitoring of vital signs and daily 12-electrode electrocardiograms. Electrolytes measurements and venous blood gas analyses were performed three-hourly, while complete blood count, coagulation and routine kidney/liver parameters were assessed twice daily.
# Severity of encountered AE was assessed following the CTCAE guidelines. Serious AE were defined as events being life-threatening, necessitating hospitalization, resulting in death or birth defects. DLT was defined as any AE ≥ grade 3 and sTET as any grade 2 AE considered to be definitely, probably or possibly related to ITPP. […] MTD was defined as the dose preceding the level at which 1 patient experienced a DLT or ≥3 patients experienced a sTET (Supplementary Note 1: page 6). The window for DLT/sTET/MTD assessment was from first dose of ITPP until first dose of chemotherapy or 10d following the last ITPP infusion. […]
# [1] = cohort 4, AE, relationship to IMP: Possibly
# [2] = cohort 4, AE, relationship to IMP: Unrelated
# [3] = cohort 4, SAE, relationship to IMP: Unrelated
# [4] = cohort 5, AE, relationship to IMP: Unlikely
# [5] = cohort 7, AE, relationship to IMP: Unlikely
# [6] = cohort 7, AE, relationship to IMP: Unrelated
# [7] = cohort 8, AE, relationship to IMP: Possibly
structure (smiles),measurement,setting,value
"O=P1(O)OC2C3OP(=O)(O)OP(=O)(O)OC3C3OP(=O)(O)OP(=O)(O)OC3C2OP(=O)(O)O1 (stereo not drawn) [ITPP, Myo-inositol trispyrophosphate]","Icterus due to malignant obstruction (AE, not ITPP-related)","cohort 4, 7000 mg/m^2",0
same,"Lower gastrointestinal bleeding (AE, not ITPP-related)","cohort 4, 7000 mg/m^2",0
same,"Nausea & vomiting due to malignant infiltration of stomach (AE, not ITPP-related)","cohort 4, 7000 mg/m^2",0
same,"Neutropenia (AE, not ITPP-related)","cohort 4, 7000 mg/m^2",0
same,"Palpitations (AE, not ITPP-related)","cohort 4, 7000 mg/m^2",0
same,"Pyrexia (AE, not ITPP-related)","cohort 4, 7000 mg/m^2",0
same,"Hypercalcemia, CTCAE-Grade","cohort 4, AE",1
same,"Hypertension, CTCAE-Grade",[1],1
same,"Hypophosphatemia, CTCAE-Grade",[1],1
same,"Ascites, CTCAE-Grade",[2],3
same,"Nausea, CTCAE-Grade",[2],1
same,"Upper respiratory tract infection, CTCAE-Grade",[2],1
same,"Acute kidney injury grad 3, CTCAE-Grade",[3],3
same,"Hospitalisation due to fatigue/decreased state of health, CTCAE-Grade",[3],3
same,"AV Block 1° (AE, not ITPP-related)","cohort 5, 8750 mg/m^2",0
same,"Acute kidney injury grade 3 (AE, not ITPP-related)","cohort 5, 8750 mg/m^2",0
same,"Ascites due to oncological progress (AE, not ITPP-related)","cohort 5, 8750 mg/m^2",0
same,"C. difficile enteritis (AE, not ITPP-related)","cohort 5, 8750 mg/m^2",0
same,"Cholestasis (AE, not ITPP-related)","cohort 5, 8750 mg/m^2",0
same,"Fatigue (AE, not ITPP-related)","cohort 5, 8750 mg/m^2",0
same,Hyperphosphatemia (TET),"cohort 5, 8750 mg/m^2",0
same,Hypertension (TET),"cohort 5, 8750 mg/m^2",0
same,Hypomagnesemia (TET),"cohort 5, 8750 mg/m^2",0
same,Hypophosphatemia (TET),"cohort 5, 8750 mg/m^2",0
same,"Lower gastrointestinal bleeding (AE, not ITPP-related)","cohort 5, 8750 mg/m^2",0
same,"Nausea & vomiting due to malignant infiltration of stomach (AE, not ITPP-related)","cohort 5, 8750 mg/m^2",0
same,"Nausea (AE, not ITPP-related)","cohort 5, 8750 mg/m^2",0
same,"Neutropenia (AE, not ITPP-related)","cohort 5, 8750 mg/m^2",0
same,"Palpitations (AE, not ITPP-related)","cohort 5, 8750 mg/m^2",0
same,"Pyrexia (AE, not ITPP-related)","cohort 5, 8750 mg/m^2",0
same,"Upper respiratory tract infection (AE, not ITPP-related)","cohort 5, 8750 mg/m^2",0
same,"Hypercalcemia, CTCAE-Grade","cohort 5, AE",1
same,"Hypokalemia, CTCAE-Grade",[4],2
same,"Hyponatremia, CTCAE-Grade",[4],1
same,"Icterus/Stenosis D. choledochus, CTCAE-Grade",[4],3
same,"AV Block 1° (AE, not ITPP-related)","cohort 6, 10,500 mg/m^2",0
same,"Acute kidney injury grade 3 (AE, not ITPP-related)","cohort 6, 10,500 mg/m^2",0
same,"Ascites due to oncological progress (AE, not ITPP-related)","cohort 6, 10,500 mg/m^2",0
same,"C. difficile enteritis (AE, not ITPP-related)","cohort 6, 10,500 mg/m^2",0
same,"Cholestasis (AE, not ITPP-related)","cohort 6, 10,500 mg/m^2",0
same,"Fatigue (AE, not ITPP-related)","cohort 6, 10,500 mg/m^2",0
same,Hyperphosphatemia (TET),"cohort 6, 10,500 mg/m^2",0
same,Hypertension (TET),"cohort 6, 10,500 mg/m^2",0
same,"Hypokalemia (AE, not ITPP-related)","cohort 6, 10,500 mg/m^2",0
same,"Hyponatremia (AE, not ITPP-related)","cohort 6, 10,500 mg/m^2",0
same,Hypophosphatemia (TET),"cohort 6, 10,500 mg/m^2",0
same,"Icterus due to malignant obstruction (AE, not ITPP-related)","cohort 6, 10,500 mg/m^2",0
same,"Lower gastrointestinal bleeding (AE, not ITPP-related)","cohort 6, 10,500 mg/m^2",0
same,"Nausea & vomiting due to malignant infiltration of stomach (AE, not ITPP-related)","cohort 6, 10,500 mg/m^2",0
same,"Nausea (AE, not ITPP-related)","cohort 6, 10,500 mg/m^2",0
same,"Palpitations (AE, not ITPP-related)","cohort 6, 10,500 mg/m^2",0
same,"Pyrexia (AE, not ITPP-related)","cohort 6, 10,500 mg/m^2",0
same,"Upper respiratory tract infection (AE, not ITPP-related)","cohort 6, 10,500 mg/m^2",0
same,"Hypercalcemia, CTCAE-Grade","cohort 6, AE",1
same,"Hypomagnesemia, CTCAE-Grade","cohort 6, AE, relationship to IMP: Possibly",1
same,"Neutropenia, CTCAE-Grade","cohort 6, AE, relationship to IMP: Unlikely",3
same,"AV Block 1° (AE, not ITPP-related)","cohort 7, 12,390 mg/m^2",0
same,"Acute kidney injury grade 3 (AE, not ITPP-related)","cohort 7, 12,390 mg/m^2",0
same,"C. difficile enteritis (AE, not ITPP-related)","cohort 7, 12,390 mg/m^2",0
same,"Cholestasis (AE, not ITPP-related)","cohort 7, 12,390 mg/m^2",0
same,"Fatigue (AE, not ITPP-related)","cohort 7, 12,390 mg/m^2",0
same,Hyperphosphatemia (TET),"cohort 7, 12,390 mg/m^2",0
same,Hypertension (TET),"cohort 7, 12,390 mg/m^2",0
same,Hypomagnesemia (TET),"cohort 7, 12,390 mg/m^2",0
same,Hypophosphatemia (TET),"cohort 7, 12,390 mg/m^2",0
same,"Icterus due to malignant obstruction (AE, not ITPP-related)","cohort 7, 12,390 mg/m^2",0
same,"Lower gastrointestinal bleeding (AE, not ITPP-related)","cohort 7, 12,390 mg/m^2",0
same,"Nausea & vomiting due to malignant infiltration of stomach (AE, not ITPP-related)","cohort 7, 12,390 mg/m^2",0
same,"Nausea (AE, not ITPP-related)","cohort 7, 12,390 mg/m^2",0
same,"Neutropenia (AE, not ITPP-related)","cohort 7, 12,390 mg/m^2",0
same,"Palpitations (AE, not ITPP-related)","cohort 7, 12,390 mg/m^2",0
same,"Hypercalcemia, CTCAE-Grade","cohort 7, AE",1
same,"Hypokalemia, CTCAE-Grade",[5],1
same,"Upper respiratory tract infection, CTCAE-Grade",[5],2
same,"Ascites, CTCAE-Grade",[6],3
same,"Pyrexia, CTCAE-Grade",[6],1
same,"Acute kidney injury grade 3 (AE, not ITPP-related)","cohort 8, 14,500 mg/m^2",0
same,"Ascites due to oncological progress (AE, not ITPP-related)","cohort 8, 14,500 mg/m^2",0
same,"C. difficile enteritis (AE, not ITPP-related)","cohort 8, 14,500 mg/m^2",0
same,"Cholestasis (AE, not ITPP-related)","cohort 8, 14,500 mg/m^2",0
same,"Fatigue (AE, not ITPP-related)","cohort 8, 14,500 mg/m^2",0
same,"Hypokalemia (AE, not ITPP-related)","cohort 8, 14,500 mg/m^2",0
same,"Hyponatremia (AE, not ITPP-related)","cohort 8, 14,500 mg/m^2",0
same,Hypophosphatemia (TET),"cohort 8, 14,500 mg/m^2",0
same,"Icterus due to malignant obstruction (AE, not ITPP-related)","cohort 8, 14,500 mg/m^2",0
same,"Lower gastrointestinal bleeding (AE, not ITPP-related)","cohort 8, 14,500 mg/m^2",0
same,"Nausea & vomiting due to malignant infiltration of stomach (AE, not ITPP-related)","cohort 8, 14,500 mg/m^2",0
same,"Nausea (AE, not ITPP-related)","cohort 8, 14,500 mg/m^2",0
same,"Neutropenia (AE, not ITPP-related)","cohort 8, 14,500 mg/m^2",0
same,"Palpitations (AE, not ITPP-related)","cohort 8, 14,500 mg/m^2",0
same,"Pyrexia (AE, not ITPP-related)","cohort 8, 14,500 mg/m^2",0
same,"Upper respiratory tract infection (AE, not ITPP-related)","cohort 8, 14,500 mg/m^2",0
same,"Hyperphosphatemia, CTCAE-Grade",[7],1
same,"Hypomagnesemia, CTCAE-Grade",[7],1
same,"Hypertension, CTCAE-Grade","cohort 8, AE, relationship to IMP: Probably",1
same,"AV Block 1°, CTCAE-Grade","cohort 8, AE, relationship to IMP: Unrelated",1
same,sTET or DLT,cohorts 1–7,No significant treatment-emergent toxicity (sTET) or dose limiting toxicity (DLT) was encountered
same,Total number of adverse events (AE),during ITPP administration and 10-day follow-up,56
same,Increase in diastolic blood pressure,"grade I, three older male patients with pre-existing hypertension",< 20 mmHg
same,"Hypercalcemia of free ionized calcium, CTCAE grade (first sTET)","patient Nr. 27, cohort 8, single dose 14’500 mg/m^2",grade II
same,"Hypercalcemia of free ionized calcium, CTCAE grade (second sTET and DLT)","patient Nr. 28, cohort 8, single dose 14’500 mg/m^2",grade II and IV
same,Maximum tolerated dose (MTD),"single dose, intravenous over eight hours, nine infusions over three weeks","12,390 mg/m^2"
